Laboratory results as given in article PMC6442233, “SAR and molecular mechanism studies of monoamine oxidase inhibition by selected chalcone analogs” (Journal of Enzyme Inhibition and Medicinal Chemistry, 2019).

Experiments:
human MAO-B = molecular target: T1, human MAO-B (Homo sapiens, UniProt P27338); assay: IC50 determination for MAO-B inhibition (kynuramine, fluorescence); format: biochemical; conditions: for Selectivity index: SI = IC50(MAO-A)/IC50(MAO-B); for IC50: recombinant hMAO-B, kynuramine 50 μM, mean ± SD (triplicate)
T1 construct: purchased Sigma-Aldrich
T1 sequence (P27338 1-520): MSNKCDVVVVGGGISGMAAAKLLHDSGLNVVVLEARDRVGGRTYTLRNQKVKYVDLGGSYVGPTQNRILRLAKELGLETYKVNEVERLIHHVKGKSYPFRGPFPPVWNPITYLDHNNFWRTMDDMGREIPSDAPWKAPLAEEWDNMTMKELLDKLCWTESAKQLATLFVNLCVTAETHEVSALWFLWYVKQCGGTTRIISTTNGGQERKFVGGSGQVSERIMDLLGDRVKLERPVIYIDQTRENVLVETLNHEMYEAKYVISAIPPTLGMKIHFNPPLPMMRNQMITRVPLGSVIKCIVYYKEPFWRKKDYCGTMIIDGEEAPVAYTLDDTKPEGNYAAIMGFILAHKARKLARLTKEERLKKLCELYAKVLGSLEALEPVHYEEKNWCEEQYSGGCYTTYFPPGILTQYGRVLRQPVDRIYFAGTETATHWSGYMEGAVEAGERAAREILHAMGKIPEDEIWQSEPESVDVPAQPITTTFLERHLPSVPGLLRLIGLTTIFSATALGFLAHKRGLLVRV
Protocol: (§1) IC50 values for the inhibition of MAO were determined by using the recombinant human MAO-A and MAO-B enzymes (Sigma-Aldrich). Enzyme reactions were performed at a final volume of 200 µL in white 96-well microplates (Eppendorf), with the reaction solvent consisting of potassium phosphate buffer (100 mM, pH 7.4, adjusted to isotonicity with KCl). The reactions contained the nonselective MAO substrate, kynuramine (50 μM), and the test inhibitors at 0.003–100 µM. The test compounds were initially dissolved in DMSO (100%), and after addition to the reactions yielded a concentration of 4% DMSO. Control reactions were included, which contained substrate and 4% DMSO but no test inhibitor. The MAO reactions were started by adding MAO-A (0.0075 mg protein/mL) or MAO-B (0.015 mg protein/mL), and were subsequently incubated for a period of 20 min (37 °C) in a convection oven. A volume of 80 µL 2 N sodium hydroxide was added to the reactions, and the fluorescence intensity of 4-hydroxyquinoline (the end-product of the MAO-catalyzed metabolism of kynuramine) in the reactions was measured at λex 310 and λem 400 nm. To quantify 4-hydroxyquinoline, a calibration curve (linear) ranging from 0.047 to 1.56 μM, was employed. […] These measurements were carried out in triplicate and the IC50 values are presented as the mean ± standard deviation (SD)[18].
(§2) The formation of the dihydropyridinium species (MMDP^+) as a MAO-catalyzed oxidation product of MMTP was monitored at 420 nm. […] Based on this, the IC50 values were determined using kynuramine as a nonselective substrate. The rate of oxidation of kynuramine by MAO was monitored by measuring the fluorescence of the oxidation product, 4-hydroxyquinoline (λex= 310 nm; λem= 400 nm).

human MAO-A = molecular target: T2, human MAO-A (Homo sapiens, UniProt P21397); assay: IC50 determination for MAO-A inhibition (kynuramine, fluorescence); format: biochemical; conditions: recombinant hMAO-A, kynuramine 50 μM, mean ± SD (triplicate)
T2 construct: purchased Sigma-Aldrich
T2 sequence (P21397 1-527): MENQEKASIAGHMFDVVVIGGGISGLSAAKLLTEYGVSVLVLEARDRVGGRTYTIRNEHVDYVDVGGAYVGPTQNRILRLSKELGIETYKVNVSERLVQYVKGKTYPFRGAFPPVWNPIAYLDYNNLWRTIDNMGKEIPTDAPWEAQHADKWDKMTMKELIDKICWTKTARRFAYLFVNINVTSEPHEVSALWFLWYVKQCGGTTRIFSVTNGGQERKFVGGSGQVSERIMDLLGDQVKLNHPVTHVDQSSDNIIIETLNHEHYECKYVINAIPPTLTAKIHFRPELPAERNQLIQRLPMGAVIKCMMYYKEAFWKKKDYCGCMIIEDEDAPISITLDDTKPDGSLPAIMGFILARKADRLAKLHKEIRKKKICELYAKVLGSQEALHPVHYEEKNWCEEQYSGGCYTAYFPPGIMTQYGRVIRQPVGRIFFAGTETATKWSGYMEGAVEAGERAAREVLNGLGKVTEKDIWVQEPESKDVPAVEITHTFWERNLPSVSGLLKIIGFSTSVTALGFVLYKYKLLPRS
Protocol: as §1, §2

Row | Selectivity index (human MAO-B) | IC50 (human MAO-B) | IC50 (human MAO-A) | melting point | SMILES
1 | 116 | 0.123 ± 0.003 µM | 14.3 ± 1.81 µM | – | CN(C)c1ccc(/C=C/C(=O)c2cccc(C(F)(F)F)c2)cc1 [Compound 1, (E)-3–(4-(dimethylamino)phenyl)-1–(3-(trifluoromethyl)phenyl)prop-2-en-1-one]
2 | >260 | 0.383 ± 0.061 µM | > 100 µM | – | CN(C)c1ccc(/C=C/C(=O)c2ccc(C(F)(F)F)cc2)cc1 [Compound 2, (E)-3–(4-(dimethylamino)phenyl)-1–(4-(trifluoromethyl)phenyl)prop-2-en-1-one]
3 | >185 | 0.539 ± 0.058 µM | > 100 µM | – | CN(C)c1ccc(/C=C/C(=O)c2ccc(Br)cc2)cc1 [Compound 3, (E)-1–(4-bromophenyl)-3–(4-(dimethylamino)phenyl)prop-2-en-1-one]
4 | >310 | 0.321 ± 0.023 µM | > 100 µM | – | CN(C)c1ccc(/C=C/C(=O)c2ccc(Cl)cc2)cc1 [Compound 4, (E)-1–(4-chlorophenyl)-3–(4-(dimethylamino)phenyl)prop-2-en-1-one]
5 | 67 | 0.106 ± 0.012 µM | 7.18 ± 0.755 µM | 96 to 100 °C | O=C(/C=C/c1cccc2c1OCO2)c1ccc(Br)cc1 [Compound 5, (E)-3-(benzo[d][1,3]dioxol-4-yl)-1–(4-bromophenyl)prop-2-en-1-one]
6 | 130 | 0.139 ± 0.019 µM | 18.1 ± 3.49 µM | 83 to 87 °C | O=C(/C=C/c1cccc2c1OCO2)c1ccc(Cl)cc1 [Compound 6, (E)-3-(benzo[d][1,3]dioxol-4-yl)-1–(4-chlorophenyl)prop-2-en-1-one]
7 | >1230 | 0.081 ± 0.012 µM | > 100 µM | 107 to 111 °C | O=C(/C=C/c1cccc2c1OCO2)c1cccc(Br)c1 [Compound 7, (E)-3-(benzo[d][1,3]dioxol-4-yl)-1–(3-bromophenyl)prop-2-en-1-one]
8 | >1720 | 0.058 ± 0.009 µM | > 100 µM | 79 to 83 °C | O=C(/C=C/c1cccc2c1OCO2)c1cccc(Cl)c1 [Compound 8, (E)-3-(benzo[d][1,3]dioxol-4-yl)-1–(3-chlorophenyl)prop-2-en-1-one]
9 | >240 | 0.404 ± 0.064 µM | > 100 µM | 206 to 210 °C | CS(=O)(=O)c1ccc(C(=O)/C=C/c2ccc(Br)cc2)cc1 [Compound 9, (E)-3–(4-bromophenyl)-1–(4-(methylsulfonyl)phenyl)prop-2-en-1-one]
10 | 150 | 0.582 ± 0.03 µM | 87.3 ± 9.34 µM | 199 to 203 °C | COc1cc(Br)ccc1/C=C/C(=O)c1ccc(S(C)(=O)=O)cc1 [Compound 10, (E)-3–(4-bromo-2-methoxyphenyl)-1–(4-(methylsulfonyl)phenyl)prop-2-en-1-one]
11 | 487 | 0.198 ± 0.012 µM | 96.6 ± 5.21 µM | 139 to 143 °C | CSc1ccc(C(=O)/C=C/c2cccc(Br)c2)cc1 [Compound 11, (E)-3–(3-bromophenyl)-1–(4-(methylthio)phenyl)prop-2-en-1-one]
12 | 172 | 0.069 ± 0.006 µM | 11.9 ± 0.822 µM | 165 to 169 °C | O=C(/C=C/c1ccc([N+](=O)[O-])cc1)c1ccc(F)cc1 [Compound 12, (E)-1–(4-fluorophenyl)-3–(4-nitrophenyl)prop-2-en-1-one]
13 | – | 0.034 ± 0.006 µM | 45.5 ± 2.93 µM | 162 to 166 °C | O=C(/C=C/c1ccc([N+](=O)[O-])cc1)c1ccc(Cl)cc1 [Compound 13, (E)-1–(4-chlorophenyl)-3–(4-nitrophenyl)prop-2-en-1-one]
14 | 1.7 | 0.102 ± 0.009 µM | 0.173 ± 0.003 µM | 150 to 153 °C | O=C(/C=C/c1ccc(Br)cc1)c1ccc2c(c1)OCO2 [Compound 15, (E)-1-(benzo[d][1,3]dioxol-5-yl)-3–(4-bromophenyl)prop-2-en-1-one]
15 | <0.005 | > 100 µM | 0.56 ± 0.076 µM | – | COc1cc(OC)c(/C=C/C(=O)c2ccc(Br)cc2)c(OC)c1 [Compound 18, (E)-1–(4-bromophenyl)-3–(2,4,6-trimethoxyphenyl)prop-2-en-1-one]
16 | <0.004 | > 100 µM | 0.444 ± 0.039 µM | – | COc1cc(OC)c(/C=C/C(=O)c2ccc(F)cc2)c(OC)c1 [Compound 19, (E)-1–(4-fluorophenyl)-3–(2,4,6-trimethoxyphenyl)prop-2-en-1-one]
17 | 5.8 | 0.999 ± 0.276 µM | 5.81 ± 0.878 µM | 73 to 77 °C | COc1ccccc1/C=C/C(=O)c1ccc(Br)cc1 [Compound 20, (E)-1–(4-bromophenyl)-3–(2-methoxyphenyl)prop-2-en-1-one]
18 | 37 | 0.174 ± 0.015 µM | 6.59 ± 0.422 µM | 120 to 124 °C | COc1cccc(/C=C/C(=O)c2ccc(Br)cc2)c1OC [Compound 21, (E)-1–(4-bromophenyl)-3–(2,3-dimethoxyphenyl)prop-2-en-1-one]
19 | – | 15.6 ± 0.803 µM | > 100 µM | 75 to 79 °C | CCOc1cccc(/C=C/C(=O)c2ccc(Br)cc2)c1OCC [Compound 22, (E)-1–(4-bromophenyl)-3–(2,3-diethoxyphenyl)prop-2-en-1-one]
